The source of these data is patent US11072598B2, “Somatostatin modulators and uses thereof” (CRINETICS PHARMACEUTICALS, INC., priority 2017, dated 2021).

The EC50 is the concentration that produces a half-maximal response.

This assay deals with T1, human somatostatin receptor subtype 2 (Homo sapiens, UniProt P30874).
T1 construct: expressed in transfected cells
T1 sequence (P30874 whole entry): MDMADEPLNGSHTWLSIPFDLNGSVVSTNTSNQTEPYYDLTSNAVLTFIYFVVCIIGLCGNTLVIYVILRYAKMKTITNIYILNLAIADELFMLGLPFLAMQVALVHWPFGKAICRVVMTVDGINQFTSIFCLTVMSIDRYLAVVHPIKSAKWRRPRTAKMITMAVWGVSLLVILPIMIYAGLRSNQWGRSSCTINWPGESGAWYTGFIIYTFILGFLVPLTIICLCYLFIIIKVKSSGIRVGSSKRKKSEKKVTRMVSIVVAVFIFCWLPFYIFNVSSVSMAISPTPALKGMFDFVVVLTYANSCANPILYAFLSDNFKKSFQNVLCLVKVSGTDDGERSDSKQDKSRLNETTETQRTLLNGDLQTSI
Briefly: cAMP functional assay for SSTR2 agonists. Format: cell-based. Conditions: inhibition of cAMP activities via human SST2 receptor (SSTR2), CHO-K1 cells; read-out: EC50. The text has this: General overview: All five SSTR subtypes are Gi coupled G-protein coupled receptors (GPCRs) that lead to decreases in intracellular cyclic AMP (cAMP) when activated by an agonist. Therefore, measurement of intracellular cAMP levels can be used to assess whether compounds of the invention are agonists of SSTR subtypes (John Kelly, Troy Stevens, W. Joseph Thompson, and Roland Seifert, Current Protocols in Pharmacology, 2005, 2.2.1-2.2). One example of an intracellular cAMP assay is described below. cAMP assay protocol:
Four days prior to the assay, 5,000 Chinese hamster ovary cells (CHO-K1, ATCC #CCL-61) stably expressing the human somatostatin receptor subtype 2 are plated in each well of a 96-well tissue culture-treated plate in Ham's F12 growth media (ThermoFisher #10-080-CM) supplemented with 10% donor bovine serum (Gemini Bio-Products #100-506), 100 U/mL penicillin; 100 ug/mL streptomycin; 2 mM L-glutamine (Gemini Bio-Products #400-110) and 0.2 mg/mL hygromycin B (GoldBio #31282-04-9). The cells are cultured at 37° C., 5% CO2 and 95% humidity. On the day of the assay, the media is aspirated and the cells are treated with 50 μL of 1.6 μM NKH477 (Sigma #N3290) plus various dilutions of compounds of the invention in assay buffer [1× Hank's Balanced Salt Solution (ThermoFisher #SH3058802), 0.5 mM HEPES pH 7.4, 0.1% bovine serum albumin, 0.2 mM 3-Isobutyl-1-methylxanthine (IBMX, VWR #200002-790)]. The cells are incubated for 20 minutes at 37° C. […] The cells are treated with 50 μL of lysis buffer (HRTF cAMP kit, Cisbio). The lysate is transferred to 384-well plates and cAMP detection and visualization antibodies are added and incubated for 1-24 hours at room temperature. The time-resolved fluorescent signal is read with a Tecan M1000Pro multiplate reader. The intracellular cAMP concentrations are calculated by regression to a standard curve and are plotted vs. the concentration of the compounds of the invention and the EC50 of the compounds are calculated using standard methods. All data manipluations are in GraphPad Prism v6.
“4-(4-aminopiperidin-1-yl)-5-(3-fluoro-5-methylphenyl)-3-(7-methoxy-1H-1,3-benzodiazol-2-yl)pyridin-2-amine [Compound 1-13]”: the EC50 was less than 10 nM.
On to “4-(4-aminopiperidin-1-yl)-5-(3-fluoro-5-methylphenyl)-3-{5-[(hydroxyimino)methyl]-1H-1,3-benzodiazol-2-yl}pyridin-2-amine [Compound 1-47]”, for which the EC50 was less than 10 nM.
To `CO[C@@H]1CN(c2c(-c3cc(C)cc(F)c3)cnc(N)c2-c2nc3cc(Cl)ccc3[nH]2)CC[C@H]1N` (relative stereo) [Compound 1-7, 4-[trans-4-amino-3-methoxypiperidin-1-yl]-3-(5-chloro-1H-1,3-benzodiazol-2-yl)-5-(3-fluoro-5-methylphenyl)pyridin-2-amine] belongs less than 10 nM; to `Cc1cc(C)cc(-c2cnc(N)c(-c3nc4cc(Cl)ccc4[nH]3)c2N2CC[C@@H](N)[C@H](C#N)C2)c1` (relative stereo) [Compound 1-41, trans-4-amino-1-[2-amino-3-(5-chloro-1H-1,3-benzodiazol-2-yl)-5-(3,5-dimethylphenyl)pyridin-4-yl]piperidine-3-carbonitrile], less than 10 nM.
To `Cc1cc(F)cc(-c2cnc(N)c(-c3nc4cc(Cl)ccc4[nH]3)c2N2CC[C@@H](N)[C@H](C#N)C2)c1` (relative stereo) [Compound 1-42, trans-4-amino-1-[2-amino-3-(5-chloro-1H-1,3-benzodiazol-2-yl)-5-(3-fluoro-5-methylphenyl)pyridin-4-yl]piperidine-3-carbonitrile] belongs less than 10 nM; to `CO[C@@H]1CN(c2c(-c3cc(C)cc(F)c3)cnnc2-c2cc3ccc(Cl)cc3[nH]2)CC[C@H]1N` (relative stereo) [Compound 3-11, trans-1-[3-(6-chloro-1H-indol-2-yl)-5-(3-fluoro-5-methylphenyl)pyridazin-4-yl]-3-methoxypiperidin-4-amine], less than 10 nM; to `C=Cn1c(-c2c(N)ncc(-c3cc(C)cc(F)c3)c2N2CCC(N)CC2)nc2cc(F)c(F)cc21` [Compound 1-4, 4-(4-aminopiperidin-1-yl)-3-(1-ethenyl-5,6-difluoro-1H-1,3-benzodiazol-2-yl)-5-(3-fluoro-5-methylphenyl)pyridin-2-amine], less than 10 nM.
With `Cc1cc(F)cc(-c2cnc(N)c(-c3nc4cc(S(N)(=O)=O)ccc4[nH]3)c2N2CCC(N)CC2)c1` [Compound 1-9, 2-[2-amino-4-(4-aminopiperidin-1-yl)-5-(3-fluoro-5-methylphenyl)pyridin-3-yl]-1H-1,3-benzodiazole-5-sulfonamide], the EC50 is less than 10 nM.
Consider `Cc1cc(F)cc(-c2cnc(N)c(-c3nc4ccc(F)c(F)c4[nH]3)c2N2CCC(N)CC2)c1` [Compound 1-15, 4-(4-aminopiperidin-1-yl)-3-(6,7-difluoro-1H-1,3-benzodiazol-2-yl)-5-(3-fluoro-5-methylphenyl)pyridin-2-amineine], for which the EC50 is less than 10 nM.
For the compound `Cc1cc(F)cc(-c2cnc(N)c(-c3nc4cc(OC5COC5)ccc4[nH]3)c2N2CCC(N)CC2)c1` [Compound 1-16, 4-(4-aminopiperidin-1-yl)-5-(3-fluoro-5-methylphenyl)-3-[5-(oxetan-3-yloxy)-1H-1,3-benzodiazol-2-yl]pyridin-2-amine], the EC50 is less than 10 nM.
For `CONC(=O)c1cccc2nc(-c3c(N)ncc(-c4cc(C)cc(F)c4)c3N3CCC(N)CC3)[nH]c12` [Compound 1-17, 2-[2-amino-4-(4-aminopiperidin-1-yl)-5-(3-fluoro-5-methylphenyl)pyridin-3-yl]-N-methoxy-1H-1,3-benzodiazole-7-carboxamide] the value was 10 to 100 nM.
For `CON(C)C(=O)c1cccc2nc(-c3c(N)ncc(-c4cc(C)cc(F)c4)c3N3CCC(N)CC3)[nH]c12` [Compound 1-18, 2-[2-amino-4-(4-aminopiperidin-1-yl)-5-(3-fluoro-5-methylphenyl)pyridin-3-yl]-N-methoxy-N-methyl-1H-1,3-benzodiazole-7-carboxamide] the value was 10 to 100 nM; for `Cc1cc(F)cc(-c2cnc(N)c(-c3nc4cc(OC5CCC5)ccc4[nH]3)c2N2CCC(N)CC2)c1` [Compound 1-19, 4-(4-aminopiperidin-1-yl)-3-(5-cyclobutoxy-1H-1,3-benzodiazol-2-yl)-5-(3-fluoro-5-methylphenyl)pyridin-2-amine], less than 10 nM.
For `Cc1cc(F)cc(-c2cnc(N)c(-c3nc4cc(OC5CC5)ccc4[nH]3)c2N2CCC(N)CC2)c1` [Compound 1-20, 4-(4-aminopiperidin-1-yl)-3-(5-cyclopropoxy-1H-1,3-benzodiazol-2-yl)-5-(3-fluoro-5-methylphenyl)pyridin-2-amine] the value was less than 10 nM; for `Cc1cc(F)cc(-c2cnc(N)c(-c3nc4cccc(C#N)c4[nH]3)c2N2CCC(N)CC2)c1` [Compound 1-21, 2-[2-amino-4-(4-aminopiperidin-1-yl)-5-(3-fluoro-5-methylphenyl)pyridin-3-yl]-1H-1,3-benzodiazole-7-carbonitrile], less than 10 nM.
Take `Cc1cc(F)cc(-c2cnc(N)c(-c3nc4cccc(C=NO)c4[nH]3)c2N2CCC(N)CC2)c1` [Compound 1-22, 4-(4-aminopiperidin-1-yl)-5-(3-fluoro-5-methylphenyl)-3-{7-[(hydroxyimino)methyl]-1H-1,3-benzodiazol-2-yl]pyridin-2-amine]: the EC50 is less than 10 nM.
For `CONC(=O)c1ccc2[nH]c(-c3c(N)ncc(-c4cc(C)cc(F)c4)c3N3CCC(N)CC3)nc2c1` [Compound 1-23, 2-[2-amino-4-(4-aminopiperidin-1-yl)-5-(3-fluoro-5-methylphenyl)pyridin-3-yl]-N-methoxy-1H-1,3-benzodiazole-5-carboxamide] the value was 10 to 100 nM.
For `CON(C)C(=O)c1ccc2[nH]c(-c3c(N)ncc(-c4cc(C)cc(F)c4)c3N3CCC(N)CC3)nc2c1` [Compound 1-24, 2-[2-amino-4-(4-aminopiperidin-1-yl)-5-(3-fluoro-5-methylphenyl)pyridin-3-yl]-N-methoxy-N-methyl-1H-1,3-benzodiazole-5-carboxamide] the value was less than 10 nM; for `Cc1cc(C#N)cc(-c2cnc(N)c(-c3nc4cc(Cl)ccc4[nH]3)c2N2CCC(N)CC2)c1` [Compound 1-25, 3-[6-amino-4-(4-aminopiperidin-1-yl)-5-(5-chloro-1H-1,3-benzodiazol-2-yl)pyridin-3-yl]-5-methylbenzonitrile], less than 10 nM; for `Cc1cc(F)cc(-c2cnc(N)c(-c3nc4cc(N5CC(F)C5)ccc4[nH]3)c2N2CCC(N)CC2)c1` [Compound 1-26, 4-(4-aminopiperidin-1-yl)-5-(3-fluoro-5-methylphenyl)-3-[5-(3-fluoroazetidin-1-yl)-1H-1,3-benzodiazol-2-yl]pyridin-2-amine], less than 10 nM.
For `COC(=O)Nc1cccc2nc(-c3c(N)ncc(-c4cc(C)cc(F)c4)c3N3CCC(N)CC3)[nH]c12` [Compound 1-27, methyl N-{2-[2-amino-4-(4-aminopiperidin-1-yl)-5-(3-fluoro-5-methylphenyl)pyridin-3-yl]-1H-1,3-benzodiazol-7-yl}carbamate] the value was less than 10 nM; for `Cc1cc(F)cc(-c2cnc(N)c(-c3nc4ccc(Cl)cc4n3C)c2N2CCC(N)CC2)c1` [Compound 1-29, 4-(4-aminopiperidin-1-yl)-3-(6-chloro-1-methyl-1H-1,3-benzodiazol-2-yl)-5-(3-fluoro-5-methylphenyl)pyridin-2-amine], less than 10 nM; for `Cc1cc(F)cc(-c2cnc(N)c(-c3nc4cc5c(cc4[nH]3)OC(F)(F)O5)c2N2CCC(N)CC2)c1` [Compound 1-31, 4-(4-aminopiperidin-1-yl)-3-{5,5-difluoro-4,6-dioxa-10,12-diazatricyclo[7.3.0.0^3,7]dodeca-1,3 (7),8,10-tetraen-11-yl}-5-(3-fluoro-5-methylphenyl)pyridin-2-amine], less than 10 nM.
For the compound `N#Cc1cc(F)cc(-c2cnc(N)c(-c3nc4cc(Cl)ccc4[nH]3)c2N2CCC(N)CC2)c1` [Compound 1-32, 3-[6-amino-4-(4-aminopiperidin-1-yl)-5-(5-chloro-1H-1,3-benzodiazol-2-yl)pyridin-3-yl]-5-fluorobenzonitrile], the EC50 was less than 10 nM.
To `Cc1cc(F)cc(-c2cnc(N)c(-c3cc4ccc(C#N)cc4[nH]3)c2N2CCC(N)CC2)c1` [Compound 1-33, 2-[2-amino-4-(4-aminopiperidin-1-yl)-5-(3-fluoro-5-methylphenyl)pyridin-3-yl]-1H-indole-6-carbonitrile] belongs less than 10 nM; to `Cc1cc(F)cc(-c2cnc(N)c(C=NOC(C)C)c2N2CCC(N)CC2)c1` [Compound 1-34], less than 10 nM.
Turning to `Cc1cc(F)cc(-c2cnc(N)c(C=NOC(C)(C)C)c2N2CCC(N)CC2)c1` [Compound 1-35], the concentration giving a half-maximal response (EC50) is less than 10 nM.
